Laboratory results taken from ChEMBL document CHEMBL3044607, “Quantitative structureactivity relationships of imidacloprid and its analogs with substituents at the C5 position on the pyridine ring in the neuroblocking activity” (J Pestic Sci, 2006).

Test system: Periplaneta americana
Assay: Insecticidal activity against Periplaneta americana (American cockroach) assessed as neuroblocking concentration
Type: functional

Structure (SMILES)	log(1/BC)
N#Cc1cc(CN2CCN/C2=N\[N+](=O)[O-])cnc1Cl	4.59
CCc1cc(CN2CCN/C2=N\[N+](=O)[O-])cnc1Cl	4.66
CCCOc1cc(CN2CCN/C2=N\[N+](=O)[O-])cnc1Cl	4.56
O=[N+]([O-])/N=C1/NCCN1Cc1cnc(Cl)c(F)c1 [5-FLUOROIMIDACLOPRID]	5.99
CC(C)Oc1cc(CN2CCN/C2=N\[N+](=O)[O-])cnc1Cl	4.46
O=[N+]([O-])/N=C1\NCCN1Cc1ccc(Cl)nc1 [IMIDACLOPRID]	5.7
COC(=O)c1cc(CN2CCN/C2=N\[N+](=O)[O-])cnc1Cl	3.92
O=[N+]([O-])/N=C1\NCCN1Cc1cnc(Cl)c(Br)c1	5.51
CCCCc1cc(CN2CCN/C2=N\[N+](=O)[O-])cnc1Cl	3.79
COc1cc(CN2CCN/C2=N\[N+](=O)[O-])cnc1Cl	4.98
O=[N+]([O-])/N=C1\NCCN1Cc1cnc(Cl)c(C(F)(F)F)c1	4.43
O=[N+]([O-])/N=C1\NCCN1Cc1cnc(Cl)c(-c2ccccc2)c1	4.46
CCOc1cc(CN2CCN/C2=N\[N+](=O)[O-])cnc1Cl	4.66
[N-]=[N+]=Nc1cc(CN2CCN/C2=N\[N+](=O)[O-])cnc1Cl [5-AZIDOIMIDACLOPRID]	4.98
O=[N+]([O-])/N=C1\NCCN1Cc1cnc(Cl)c([N+](=O)[O-])c1	3.6
CCCCCOc1cc(CN2CCN/C2=N\[N+](=O)[O-])cnc1Cl	3.59
O=[N+]([O-])/N=C1\NCCN1Cc1cnc(Cl)c(I)c1	5.3
O=[N+]([O-])/N=C1\NCCN1Cc1cnc(Cl)c(Cl)c1 [5-CHLOROIMIDACLOPRID]	5.61
Cc1cc(CN2CCN/C2=N\[N+](=O)[O-])cnc1Cl	5.25
CCCCOc1cc(CN2CCN/C2=N\[N+](=O)[O-])cnc1Cl	4.58
CCCc1cc(CN2CCN/C2=N\[N+](=O)[O-])cnc1Cl	4.51
